From patent US8337896B2, “Drug-containing nanoparticles” (Kyushu University, National University Corporation, priority 2007, dated 2012)
Counter-ions that a name gives are not always drawn.

Key:
[1] = tested on: Rat aortic smooth muscle cells; experiment: Delivery and retention of nanoparticles in cultured rat smooth muscle cells; assay type: cell-based; settings: medium containing FITC alone
Experimental: Using the FITC-containing nanoparticles prepared in Experimental Example 3 (1), deliver and retention tests in cultured rat […] smooth muscle cell were performed.
Rat aortic smooth muscle cells (obtained from TOYOBO) were plated on a slide glass chamber to a subconfluent cell density in DMEM medium (Sigma) containing 10% fetal bovine serum (day 0). On day 2, the medium was changed to a medium containing FITC or FITC-containing nanoparticles (0.5 mg/mL in nanoparticles concentration).
At 5 min and 24 hr after medium exchange, the cells were fixed with methanol, the nucleus was stained with Propidium iodide (Vector laboratories, Inc.), and subjected to fluorescence microscope observation. The total number of nuclei and fluorescence positive cells were counted for each field of view, and the ratio of fluorescence positive cells was calculated.

[2] = tested on: mouse vascular injury model; experiment: Neointimal formation suppressive effect in mouse vascular injury model; assay type: in vivo; settings: high dose systemic administration: single intraperitoneal, 28 days after wire injury
Experimental: Using the pioglitazone-containing nanoparticles obtained in Example 1, the neointimal formation suppressive effect in mouse vascular injury model was tested. […] The both ends of the blood vessel were ligated with a 6-0 silk thread to temporarily shut off the blood flow. The branch was incised, and a wire (diameter […], No. C—SF-15-15, COOK) was inserted by 5 mm in the iliac artery side to injure the blood vessel. After wire injury, the experimental animals were divided into a solvent control group and pioglitazone-containing nanoparticle group. The wire was removed, 100 μl, each of a solvent and a pioglitazone-containing PLGA nanoparticle solution was intraarterially administered from the branch over 5 min. The solvent control group was administered with the solvent (phosphate buffered saline) alone only once. The pioglitazone-containing nanoparticle group was administered with the pioglitazone-containing PLGA nanoparticles obtained in Example 1 (containing 0.5 mg/mouse as nanoparticles, corresponding to pioglitazone concentration of 0.015 mg/mouse (0.5 mg/kg body weight)) once. After administration, the branch part was ligated, the blood flow was resumed and the skin was sutured. Immediately after the wire injury, a high dose (10-fold amount of clinical dose) pioglitazone hydrochloride (0.15 mg/mouse (5 mg/kg body weight) as pioglitazone) single time intraperitoneal administration group was formed. At 28 days after vascular injury, the right femoral artery was washed and fixed with phosphate buffered saline and neutral buffered formalin via the heart, and isolated. A paraffin section was prepared and stained with Elastica van Gieson, proliferating cell nuclear antigen (PCNA) was immunohistochemically stained, and evaluated for the intima/media ratio, neointimal area, medial area and cell proliferation. For immunohistochemical staining, the proliferated cells were counted and the ratio of thereof to the total cell number was calculated.

## fluorescein isothiocyanate [FITC]
[1]
  Ratio of fluorescence positive cells: 0%

## CCc1ccc(CCOc2ccc(CC3SC(=O)NC3=O)cc2)nc1 (stereo not shown) [Pioglitazone, pioglitazone hydrochloride]
[2]; 0.15 mg/mouse (5 mg/kg) as pioglitazone
  Intima/media ratio: 2.3 ± 1.2
[2]; 5 mg/kg as pioglitazone
  Medial area (μm^2): 14904 ± 2107 μm^2
  Neointimal area (μm^2): 23656 ± 8982 μm^2
